From ChEMBL document CHEMBL1135148, “Synthesis and profile of SCH351591, a novel PDE4 inhibitor” (Bioorg Med Chem Lett, 2002)

Key:
Phosphodiesterase 4 [1] = target: T1, Phosphodiesterase 4 (Homo sapiens, UniProt P27815+Q08499+Q07343+Q08493); test: Relative inhibition of phosphodiesterase 4 and rolipram binding; assay type: protein assay
Phosphodiesterase 4 [2] = target: T1, Phosphodiesterase 4; test: Inhibition of Phosphodiesterase 4 from human U937 cells; assay type: cell-based; conditions: u-937
Phosphodiesterase 4 [3] = target: Phosphodiesterase 4 (Rattus norvegicus, UniProt P14270+P14646+P14644+P54748); test: Inhibition of rolipram binding to PDE4 of rat brain
[4] = AUC in guinea pig after 3mg/kg oral dose; assay type: ADME, organism-based, Cavia porcellus, Plasma
[5] = AUC in rat after 3mg/kg oral dose; assay type: ADME, organism-based; conditions: plasma
[6] = Cmax in guinea pig after 3mg/kg oral dose; assay type: ADME, organism-based, Cavia porcellus; set-up: dose 3 mg/kg, route oral; conditions: in vivo
[7] = target: Phosphodiesterase 1 (Homo sapiens) (UniProt P54750+Q01064+Q14123); test: Inhibition of recombinant Phosphodiesterase 1; assay type: protein assay; conditions: concentration not given here
[8] = target: cGMP-specific 3',5'-cyclic phosphodiesterase (Homo sapiens) (UniProt O76074); test: Inhibition of Phosphodiesterase 5 from human platelets; conditions: concentration not given here
[9] = target: Phosphodiesterase 3 (Homo sapiens) (UniProt Q14432+Q13370); test: Inhibition of Phosphodiesterase 3 from human platelets; conditions: concentration not given here
[10] = Cmax in rat after 3mg/kg oral dose; assay type: ADME, organism-based; set-up: dose 3 mg/kg, route oral; conditions: in vivo
[11] = target: cGMP-dependent 3',5'-cyclic phosphodiesterase (Homo sapiens) (UniProt O00408); test: Inhibition of Phosphodiesterase 2; conditions: concentration not given here
[12] = target: Phosphodiesterase 7 (Homo sapiens) (UniProt Q13946+Q9NP56); test: Inhibition of Phosphodiesterase 7 from human T-lymphocyte cell line; conditions: concentration not given here
Phosphodiesterase 4 [13] = target: T1, Phosphodiesterase 4; test: Inhibition of Phosphodiesterase 4; assay type: protein assay

Sequence of Phosphodiesterase 7 (Homo sapiens) (Q13946 whole entry, looked up): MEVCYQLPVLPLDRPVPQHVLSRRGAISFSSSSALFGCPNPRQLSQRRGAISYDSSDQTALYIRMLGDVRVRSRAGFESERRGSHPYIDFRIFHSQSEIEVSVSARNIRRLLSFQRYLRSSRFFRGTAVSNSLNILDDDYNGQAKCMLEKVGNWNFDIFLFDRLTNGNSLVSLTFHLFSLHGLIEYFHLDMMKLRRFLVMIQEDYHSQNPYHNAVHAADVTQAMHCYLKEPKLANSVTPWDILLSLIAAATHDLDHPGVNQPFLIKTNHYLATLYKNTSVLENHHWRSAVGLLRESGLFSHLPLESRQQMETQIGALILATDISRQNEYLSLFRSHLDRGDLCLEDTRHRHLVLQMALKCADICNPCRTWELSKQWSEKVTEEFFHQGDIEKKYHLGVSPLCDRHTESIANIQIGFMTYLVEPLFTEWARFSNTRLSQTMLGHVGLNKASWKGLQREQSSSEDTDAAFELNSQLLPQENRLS
Sequence of Phosphodiesterase 7 (Homo sapiens) (Q9NP56 whole entry, looked up): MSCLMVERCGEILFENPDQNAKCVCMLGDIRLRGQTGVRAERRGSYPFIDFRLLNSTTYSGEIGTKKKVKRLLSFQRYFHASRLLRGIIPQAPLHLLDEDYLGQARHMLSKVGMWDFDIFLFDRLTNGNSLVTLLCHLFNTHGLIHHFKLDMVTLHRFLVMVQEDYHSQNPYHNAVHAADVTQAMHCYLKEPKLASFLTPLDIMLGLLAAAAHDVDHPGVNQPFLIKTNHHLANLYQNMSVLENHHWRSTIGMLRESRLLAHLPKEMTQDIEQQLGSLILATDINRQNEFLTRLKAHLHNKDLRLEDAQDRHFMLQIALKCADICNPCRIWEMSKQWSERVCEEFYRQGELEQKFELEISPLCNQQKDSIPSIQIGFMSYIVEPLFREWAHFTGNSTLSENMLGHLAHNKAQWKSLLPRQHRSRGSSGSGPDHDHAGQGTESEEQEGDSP
Sequence of cGMP-dependent 3',5'-cyclic phosphodiesterase (Homo sapiens) (O00408 whole entry): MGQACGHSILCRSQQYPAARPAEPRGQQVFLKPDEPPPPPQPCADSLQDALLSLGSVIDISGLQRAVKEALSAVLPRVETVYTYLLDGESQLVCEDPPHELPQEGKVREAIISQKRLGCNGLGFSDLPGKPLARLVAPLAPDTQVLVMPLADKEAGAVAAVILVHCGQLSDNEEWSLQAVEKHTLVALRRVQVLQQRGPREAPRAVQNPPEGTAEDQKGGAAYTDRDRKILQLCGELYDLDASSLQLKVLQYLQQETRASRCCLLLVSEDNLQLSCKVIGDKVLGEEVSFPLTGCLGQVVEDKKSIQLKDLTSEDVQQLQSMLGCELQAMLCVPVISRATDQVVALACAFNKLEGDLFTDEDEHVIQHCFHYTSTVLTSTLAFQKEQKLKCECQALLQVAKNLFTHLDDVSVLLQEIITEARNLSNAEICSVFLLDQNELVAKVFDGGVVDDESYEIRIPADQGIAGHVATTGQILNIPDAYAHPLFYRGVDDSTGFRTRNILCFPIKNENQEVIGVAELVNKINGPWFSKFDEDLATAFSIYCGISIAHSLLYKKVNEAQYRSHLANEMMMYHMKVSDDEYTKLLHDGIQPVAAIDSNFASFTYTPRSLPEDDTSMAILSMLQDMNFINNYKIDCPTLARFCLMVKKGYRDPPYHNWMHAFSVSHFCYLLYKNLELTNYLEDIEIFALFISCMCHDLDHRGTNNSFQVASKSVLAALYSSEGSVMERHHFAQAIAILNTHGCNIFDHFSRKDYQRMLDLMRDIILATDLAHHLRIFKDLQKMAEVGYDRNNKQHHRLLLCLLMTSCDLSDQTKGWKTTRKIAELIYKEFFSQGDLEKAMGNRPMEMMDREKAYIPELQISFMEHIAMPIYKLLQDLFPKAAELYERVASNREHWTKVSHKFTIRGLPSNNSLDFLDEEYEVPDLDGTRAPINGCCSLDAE

Row | Compound | Ratio (Phosphodiesterase 4 [1]) | IC50 (Phosphodiesterase 4 [2]) [nM] | IC50 (Phosphodiesterase 4 [3]) [nM] | further results
1 | COc1ccc(C(=O)Nc2c(C)cncc2C)c2ccc(C(F)(F)F)nc12 | 2.1 | 120 | 58 | –
2 | COc1ccc(C(=O)Nc2c(Cl)cncc2Cl)c2ccc(C(F)(F)F)nc12 | 0.66 | – | 77 | AUC ([4]; in vivo): 1174 ng·h/mL; AUC ([4]; plasma, read-out: AUC): 1170 ng·h/mL; AUC [5]: 6860 ng·h/mL; Cmax [6]: 380 ng/mL
3 | COc1ccc(C(=O)Nc2cc[n+]([O-])cc2Cl)c2ccc(C(F)(F)F)nc12 | 0.65 | 240 | 370 | –
4 | COc1ccc(C(=O)Nc2c(Cl)c[n+]([O-])cc2Cl)c2ccc(C(F)(F)F)nc12 [SCH-351591] | 0.4 | 60 | 150 | inhibition [7]: 15%; inhibition [8]: 5%; inhibition [9]: 31%; AUC ([4]; in vivo): 15757 ng·h/mL; AUC ([4]; plasma, read-out: AUC): 15800 ng·h/mL; AUC [5]: 50500 ng·h/mL; Cmax [10]: 3060 ng/mL; inhibition [11]: 0%; Cmax [6]: 1390 ng/mL; inhibition [12]: 10%; IC50 (Phosphodiesterase 4 [13]): 60 nM
5 | COc1ccc(C(=O)Nc2c(C)c[n+]([O-])cc2C)c2ccc(C(F)(F)F)nc12 | 0.39 | 150 | 380 | –
6 | COc1ccc(C(=O)Nc2ccncc2Cl)c2ccc(C(F)(F)F)nc12 | 10 | 1120 | 110 | –
7 | COc1ccc(C(=O)Nc2c(F)cncc2F)c2ccc(C(F)(F)F)nc12 | 0.94 | 35 | 38 | –
8 | COc1ccc(C(=O)Nc2c(F)c[n+]([O-])cc2F)c2ccc(C(F)(F)F)nc12 | 1.17 | 70 | 60 | –
